Converted amounts (≈) assume the structure as drawn. Read-outs that look alike come from different tables or passages of the source.
How the values were obtained:
C. albicans ATCC 90028 = assay: Anti-Fungal (Candida) Activity Assay, broth microtiter MIC; format: cell-based; conditions: ATCC90028, 48 h, 3 replicates, MIC read at 48 h
Description: (§1) Compounds of the present invention were evaluated in an Anti-Fungal Activity Assay. An exemplary procedure for the assay, which measures the susceptibility of various Candida species to anti-fungal compounds, follows. Compounds to be tested (including fluconazole and amphotericin B) were dissolved in DMSO to obtain a solution having a concentration of 1 mg/mL. These stock solutions were sterile filtered using a 0.22 um nylon syringe filter, then diluted in sterile water to achieve a final concentration of 128 μg/mL.
(§2) All species were grown from frozen stock by directly plating on to freshly prepared Sabouraud Dextrose agar (BD, Difco) and incubated overnight in ambient air at 35° C. for 24 h. A direct suspension was prepared in RPMI 1640+MOPS (Lonza, Biowhittaker) by taking individual colonies from the overnight cultures using sterile swabs soaked in sterile saline. The concentration of the suspension was determined using pre-determined standard curves. These suspensions were then diluted down to 5×10^3 CFU/mL to achieve a final concentration of 2.5×10^3 CFU/mL once added to the microtiter plate as per CLSI guidelines (M27-A3, Vol. 28 No. 14).
(§3) Broth microtiter MIC challenge plates were prepared following CLSI guidelines (M27-A3, Vol. 28 No. 14). The original CLSI guidelines focused on reading Candida MICs after 48 h of incubation. As reading after only 24 h offers a clear advantage of patient care, QC limits are being established for all drugs at 24 h. That being said there are no known interpretive breakpoints for amphotericin B at 24 h and the current fluconazole interpretive breakpoints are based on a 48 h reading. The MIC for the test compounds were recorded at 48 h. All MIC determinations were achieved by visually comparing the growth found in the antibiotic challenged wells to that of the growth control.

[1] = tested on: C. parapsilosis ATCC 22019; assay: as above; format: cell-based; conditions: Lodderomyces parapsilosis, ATCC22019, 48 h, 3 replicates, MIC read at 48 h
Description: as §1, §2, §3

C. krusei ATCC 6258 = assay: as above; format: cell-based, Candida krusei; conditions: Pichia kudriavzevii, ATCC6258, 48 h, 3 replicates, MIC read at 48 h
Description: as §1, §2, §3

Botrtyis cinerea (Bc) = assay: Growth inhibition assay of fungal pathogens; format: cell-based; conditions: 48 h, read-out: Concentration at 90% Inhibition Bc
Description: (§4) Compounds of the present invention were evaluated in a growth inhibition assay to determine the ability to control the growth of fungal pathogens, such as Botrtyis cinerea (Bc), Collectotrichum graminicola (Cg), Diplodia maydis (Dm), Fusarium moniliforme (Fm), Fusarium virguhforme (Fv), Phytophthora capsici (Pc), Rhizoctonia solani (Rs), and Septoria tritici (St). Compounds to be tested were dissolved in DMSO at 2.5 mg/ml to produce compound stock solutions (“stocks”). Stocks were diluted with DMSO by a five-fold dilution in a 96-well stock plate, and two sets of final concentrations of 50, 10, and 2 ppm or 2, 0.4, and 0.08 ppm were obtained in vitro. A set of positive controls was also prepared, with various concentrations of Soraphen (2, 0.4, and 0.08 ppm), Metalaxyl (1.1, 0.22, and 0.04 ppm), and Metconazole (2, 0.4, and 0.08 ppm or 0.2, 0.04, and 0.008 ppm) after the five-fold dilutions. Negative controls on each plate included 2% DMSO, water, and a blank (media+2% DMSO). Fungal spores were isolated from previously sub-cultured plates of Botrtyis cinerea (Bc), Collectotrichum graminicola (Cg), Diplodia maydis (Dm), Fusarium moniliforme (Fm), Fusarium virguliforme (Fv), Phytophthora capsici (Pc), and Septoria tritici (St). The isolated spores were diluted to individual concentrations with a 17% V8 liquid media. For Rhizoctonia solani (Rs) and Pythium irregulare, 1.5 mm mycelial plugs were used in place of spores and ¼ Potato Dextrose Broth (PDB) was used for dilution. The spore concentrations and plug sizes were based on growth curves generated at 48 hours for each pathogen. In a second 96-well plate, the spores or mycelial plugs, media, diluted compound solutions, and controls were combined. Once the compound was added, a true final concentration of compound in each well was measured by an OD600 reading, which adjusted for any compound precipitation that might have occurred in the well. Plate readings were repeated at both 24 and 48 hours. The blank negative control was used as a background subtraction. Additional visual ratings were performed at both 24 and 48 hours for checking on precipitation and confirming efficacy. Visual and OD600 ratings of the compounds at 48 hours were compared to the 2% DMSO negative control, and the percent of pathogen growth inhibition was determined based on those values.

[2] = tested on: Collectotrichum graminicola (Cg); assay: Growth inhibition assay of fungal pathogens; format: cell-based; conditions: 48 h, read-out: Concentration at 90% Inhibition Cg
Description: as §4

Diplodia maydis (Dm) = assay: Growth inhibition assay of fungal pathogens; format: cell-based; conditions: Stenocarpella maydis, 48 h, read-out: Concentration at 90% Inhibition Dm
Description: as §4

[3] = tested on: Fusarium moniliforme (Fm); assay: Growth inhibition assay of fungal pathogens; format: cell-based; conditions: Fusarium verticillioides, 48 h, read-out: Concentration at 90% Inhibition Fm
Description: as §4

[4] = tested on: Fusarium virguliforme (Fv); assay: Growth inhibition assay of fungal pathogens; format: cell-based; conditions: 48 h, read-out: Concentration at 90% Inhibition Fv
Description: as §4

[5] = tested on: Phytophthora capsici (Pc); assay: Growth inhibition assay of fungal pathogens; format: cell-based; conditions: 48 h, read-out: Concentration at 90% Inhibition Pc
Description: as §4

Rhizoctonia solani (Rs) = assay: Growth inhibition assay of fungal pathogens; format: cell-based; conditions: 48 h, read-out: Concentration at 90% Inhibition Rs
Description: as §4

Septoria tritici (St) = assay: Growth inhibition assay of fungal pathogens; format: cell-based; conditions: Zymoseptoria tritici, 48 h, read-out: Concentration at 90% Inhibition St
Description: as §4

SMILES	MIC (C. albicans ATCC 90028; Table 3a) [µg/mL]	MIC (C. albicans ATCC 90028; Table 3b (additional results)) [µg/mL]	MIC ([1]; Table 3a) [µg/mL]	MIC ([1]; Table 3b (additional results)) [µg/mL]	MIC (C. krusei ATCC 6258; Table 3a) [µg/mL]	MIC (C. krusei ATCC 6258; Table 3b (additional results)) [µg/mL]	IC90 (Botrtyis cinerea (Bc); Table 4a) [µg/mL]	IC90 (Botrtyis cinerea (Bc); Table 4b) [µg/mL]	IC90 ([2]; Table 4a) [µg/mL]	IC90 ([2]; Table 4b) [µg/mL]	IC90 (Diplodia maydis (Dm); Table 4a) [µg/mL]	IC90 (Diplodia maydis (Dm); Table 4b) [µg/mL]	IC90 ([3]; Table 4a) [µg/mL]	IC90 ([3]; Table 4b) [µg/mL]	IC90 ([4]; Table 4a) [µg/mL]	IC90 ([4]; Table 4b) [µg/mL]	IC90 ([5]; Table 4a) [µg/mL]	IC90 ([5]; Table 4b) [µg/mL]	IC90 (Rhizoctonia solani (Rs); Table 4a) [µg/mL]	IC90 (Rhizoctonia solani (Rs); Table 4b) [µg/mL]	further results
CCOC(=O)c1sc2c(c1C)c(=O)n(C(C)(C)C(=O)N1CCCCC1)c(=O)n2C[C@H](OC1CCOCC1)c1ccccc1OC [Compound I-2, ethyl (R)-1-(2-(2-methoxyphenyl)-2-((tetrahydro-2H-pyran-4-yl)oxy)ethyl)-5-methyl-3-(2-methyl-1-oxo-1-(piperidin-1-yl)propan-2-yl)-2,4-dioxo-1,2,3,4-tetrahydrothieno[2,3-d]pyrimidine-6-carboxylate]	0.25 to 1 (≈ 0.39 to 1.56 µM)	0.25 to 1 (≈ 0.39 to 1.56 µM)	0.25 to 1 (≈ 0.39 to 1.56 µM)	0.25 to 1 (≈ 0.39 to 1.56 µM)	0.25 to 1 (≈ 0.39 to 1.56 µM)	0.25 to 1 (≈ 0.39 to 1.56 µM)	0.4 (≈ 0.623 µM)	0.4 (≈ 0.623 µM)	0.4 (≈ 0.623 µM)	0.4 (≈ 0.623 µM)	2 (≈ 3.12 µM)	2 (≈ 3.12 µM)	0.4 (≈ 0.623 µM)	0.4 (≈ 0.623 µM)	0.4 (≈ 0.623 µM)	0.4 (≈ 0.623 µM)	≥ 50	≥ 50	2 (≈ 3.12 µM)	0.4 (≈ 0.623 µM)	IC90 (Septoria tritici (St); Table 4a): ≥ 50 µg/mL; IC90 (Septoria tritici (St); Table 4b): 10 µg/mL (≈ 15.6 µM)
CCOC(=O)c1sc2c(c1C)c(=O)n(C(C)(C)C(=O)N1CCCC1)c(=O)n2C[C@H](OC1CCOCC1)c1ccccc1OC [Compound I-3, ethyl (R)-1-(2-(2-methoxyphenyl)-2-((tetrahydro-2H-pyran-4-yl)oxy)ethyl)-5-methyl-3-(2-methyl-1-oxo-1-(pyrrolidin-1-yl)propan-2-yl)-2,4-dioxo-1,2,3,4-tetrahydrothieno[2,3-d]pyrimidine-6-carboxylate]	0.25 to 1 (≈ 0.398 to 1.59 µM)	0.25 to 1 (≈ 0.398 to 1.59 µM)	0.25 to 1 (≈ 0.398 to 1.59 µM)	0.25 to 1 (≈ 0.398 to 1.59 µM)	0.25 to 1 (≈ 0.398 to 1.59 µM)	2.1 to 4 (≈ 3.35 to 6.37 µM)	2 (≈ 3.19 µM)	2 (≈ 3.19 µM)	0.4 (≈ 0.637 µM)	0.4 (≈ 0.637 µM)	2 (≈ 3.19 µM)	2 (≈ 3.19 µM)	0.08 (≈ 0.127 µM)	0.08 (≈ 0.127 µM)	0.4 (≈ 0.637 µM)	0.4 (≈ 0.637 µM)	≥ 50	≥ 50	0.4 (≈ 0.637 µM)	0.4 (≈ 0.637 µM)	IC90 (Septoria tritici (St); Table 4a): ≥ 50 µg/mL; IC90 (Septoria tritici (St); Table 4b): ≥ 50 µg/mL
CCNC(=O)C(C)(C)n1c(=O)c2c(C)c(C(=O)OCC)sc2n(C[C@H](OC(C)C)c2ccccc2OC)c1=O [Compound I-4, (R)-ethyl 3-(1-(ethylamino)-2-methyl-1-oxopropan-2-yl)-1-(2-isopropoxy-2-(2-methoxyphenyl)ethyl)-5-methyl-2,4-dioxo-1,2,3,4-tetrahydrothieno[2,3-d]pyrimidine-6-carboxylate]	2.1 to 4 (≈ 3.75 to 7.15 µM)	2.1 to 4 (≈ 3.75 to 7.15 µM)	> 4.1	2.1 to 4 (≈ 3.75 to 7.15 µM)	2.1 to 4 (≈ 3.75 to 7.15 µM)	2.1 to 4 (≈ 3.75 to 7.15 µM)	2 (≈ 3.57 µM)	2 (≈ 3.57 µM)	≥ 50	10 (≈ 17.9 µM)	≥ 50	10 (≈ 17.9 µM)	0.4 (≈ 0.715 µM)	0.4 (≈ 0.715 µM)	2 (≈ 3.57 µM)	2 (≈ 3.57 µM)	≥ 50	≥ 50	≥ 50	≥ 50	IC90 (Septoria tritici (St); Table 4a): ≥ 50 µg/mL; IC90 (Septoria tritici (St); Table 4b): ≥ 50 µg/mL
CCOC(=O)c1sc2c(c1C)c(=O)n(C(C)(C)C(=O)N1CCOCC1)c(=O)n2C[C@H](OC(C)C)c1ccccc1OC [Compound I-5, (R)-ethyl 1-(2-isopropoxy-2-(2-methoxyphenyl)ethyl)-5-methyl-3-(2-methyl-1-morpholino-1-oxopropan-2-yl)-2,4-dioxo-1,2,3,4-tetrahydrothieno[2,3-d]pyrimidine-6-carboxylate]	> 4.1	> 4.1	> 4.1	2.1 to 4 (≈ 3.49 to 6.65 µM)	> 4.1	2.1 to 4 (≈ 3.49 to 6.65 µM)	0.4 (≈ 0.665 µM)	0.4 (≈ 0.665 µM)	≥ 50	10 (≈ 16.6 µM)	2 (≈ 3.32 µM)	2 (≈ 3.32 µM)	0.4 (≈ 0.665 µM)	0.4 (≈ 0.665 µM)	≥ 50	10 (≈ 16.6 µM)	≥ 50	≥ 50	≥ 50	≥ 50	IC90 (Septoria tritici (St); Table 4a): ≥ 50 µg/mL; IC90 (Septoria tritici (St); Table 4b): ≥ 50 µg/mL
CCOC(=O)c1sc2c(c1C)c(=O)n(C(C)(C)C(=O)N1CCCCC1)c(=O)n2C[C@H](OC(C)C)c1ccccc1OC [Compound I-6, (R)-ethyl 1-(2-isopropoxy-2-(2-methoxyphenyl)ethyl)-5-methyl-3-(2-methyl-1-oxo-1-(piperidin-1-yl)propan-2-yl)-2,4-dioxo-1,2,3,4-tetrahydrothieno[2,3-d]pyrimidine-6-carboxylate]	2.1 to 4 (≈ 3.5 to 6.67 µM)	2.1 to 4 (≈ 3.5 to 6.67 µM)	> 4.1	2.1 to 4 (≈ 3.5 to 6.67 µM)	2.1 to 4 (≈ 3.5 to 6.67 µM)	2.1 to 4 (≈ 3.5 to 6.67 µM)	0.4 (≈ 0.667 µM)	0.4 (≈ 0.667 µM)	0.4 (≈ 0.667 µM)	0.4 (≈ 0.667 µM)	0.4 (≈ 0.667 µM)	0.4 (≈ 0.667 µM)	0.08 (≈ 0.133 µM)	0.08 (≈ 0.133 µM)	0.4 (≈ 0.667 µM)	0.4 (≈ 0.667 µM)	≥ 50	≥ 50	0.4 (≈ 0.667 µM)	0.4 (≈ 0.667 µM)	IC90 (Septoria tritici (St); Table 4a): 10 µg/mL (≈ 16.7 µM); IC90 (Septoria tritici (St); Table 4b): 2 µg/mL (≈ 3.33 µM)

— patent US11098055B2, “Ester ACC inhibitors and uses thereof” (Gilead Apollo, LLC, priority 2015, dated 2021)
